Source: publication PMC12164026, “Plant-derived nodule-specific cysteine-rich peptides as potent antifungal agents against Cryptococcus neoformans: mechanisms of action, chimeric peptide enhancement, and immunomodulatory effects” (Current Research in Microbial Sciences, 2025)
Converted amounts (≈) assume the structure as drawn. Read-outs that look alike come from different tables or passages of the source. Peptide text beside a SMILES is read from it.

How the values were obtained:
J774.2 mouse macrophages = assay: Phagocytosis of peptide-treated C. neoformans cells by macrophages, imaging flow cytometry; format: cell-based; details: yeast cells pre-treated with 3.12 µM peptide for 15 min, 5:1 yeast-to-macrophage ratio
Procedure: C. neoformans was cultivated for 16 h at 30 °C, collected by centrifugation (5000 g, 5 min), and washed twice with sterile distilled water and once with PBS. […] After 15 min of incubation at 30 °C, the peptide-containing solution was removed by centrifugation, and the C. neoformans cells were washed with PBS and re-suspended in 100 µL PBS. Untreated C. neoformans cells served as controls.
To label C. neoformans cells, the suspension was supplemented with 11 µL of 1 M Na₂CO₃ (pH 10) and 2 µL of Alexa Fluor 488-labelled-concanavalin (Invitrogen, Waltham, MA, US), followed by incubation at room temperature for 30 min, protected from light. After PBS washing, the cell density was determined using a Bürker chamber and adjusted to the required concentration. […]
Following incubation, cells from each technical replicate were collected by centrifugation (200 g, 10 min), washed once with PBS, and re-suspended in 100 µL PBS buffer for detection. A random selection of 1000 macrophages was evaluated in each experimental sample, and the proportion of macrophages harboring fluorescently labelled C. neoformans cells was quantified utilizing imaging flow cytometry (FlowSight®, Amnis-EMD Millipore) equipped with a 488-nm excitation laser, with data analysis conducted through the IDEAS software platform.

C. neoformans cells = assay: Effect of X1-NCR247C and calcofluor white on CFU; format: cell-based, Cryptococcus neoformans
Procedure: To assess the effect of X1-NCR247C peptide and calcofluor white, C. neoformans cells were subjected to different treatments. […] For staining, cells were treated with calcofluor white at 2.5 µg/mL for the same duration. As a control, cells were incubated only with calcofluor white for 20 min.
For combined treatment, cells were first exposed to calcofluor white (2.5 µg/mL) for 5 min, followed by the addition of X1-NCR247C (0.39 µM), and the incubation continued for 15 additional minutes. Following treatment, cells were washed once with sterile distilled water to remove residual peptide and dye. Serial 10-, 100-, 1000-, and 10,000-fold dilutions were prepared, and 50 µL from each dilution was plated onto solid YPD medium in triplicate. After 48 h of incubation at 30 °C, colony-forming units were counted to determine cell viability under each condition.

[1] = tested on: C. neoformans IFM 5844 intact cells; assay: Susceptibility of intact cells to peptide, CFU counts; format: cell-based, Cryptococcus neoformans; details: 30 min, YNB + 0.8 M sorbitol
Procedure: (§1) The C. neoformans IFM 5844 strain was grown in YPD nutrient solution at 30 °C for 12 h by vigorous shaking until the exponential phase was reached (about 5 × 10^7 cells/mL).
To assess peptide susceptibility, 2 × 10^6 protoplasts and the same number of intact cells were treated separately with X1-NCR247C peptide at 0.78 or 0.39 µM in YNB supplemented with 0.8 M sorbitol for 30 min at 30 °C. […] Fifty microliters from each dilution were mixed into 2 mL of top-agar (0.8 M sorbitol with 1 % agar) and spread onto the surface of YPD solid medium supplemented with 0.8 M sorbitol. Plates were incubated for 3 days at 30 °C, after which colony forming units were counted to determine the survival rate of peptide-treated cells and protoplasts.

[2] = tested on: C. neoformans IFM 5844 protoplasts; assay: Susceptibility of protoplasts to peptide, CFU counts; format: cell-based, Cryptococcus neoformans; details: 30 min, YNB + 0.8 M sorbitol
Procedure: as §1
For protoplast preparation cells were harvested by centrifugation and re-suspended in 20 mL of pre-treatment buffer (10 mM Tris–HCl, pH 9; 5 mM EDTA-Na2) supplemented with 0.1 % 2-mercaptoethanol. After incubation at room temperature for 20 min, the samples were centrifuged and the cell pellet was washed with 0.8 M sorbitol solution. The pellet was then re-suspended in 20 mL of protoplasting solution (prepared by dissolving 1 g lyophilised Helix pomatia digestive enzyme in 100 mL sorbitol) and the suspension was incubated for 60 min at room temperature. Protoplast formation was monitored every 30 min under bright field microscope. Once formed, protoplasts were collected by centrifugation, washed twice with 0.8 M sorbitol, and their concentration was determined in a Bürker chamber.
To assess peptide susceptibility, 2 × 10^6 protoplasts and the same number of intact cells were treated separately with X1-NCR247C peptide at 0.78 or 0.39 µM in YNB supplemented with 0.8 M sorbitol for 30 min at 30 °C. […] Plates were incubated for 3 days at 30 °C, after which colony forming units were counted to determine the survival rate of peptide-treated cells and protoplasts.

[3] = tested on: Cryptococcus neoformans IFM 5844; assay: microbe, parasite or virus in culture; format: cell-based; details: IFM 5844, 48 h; read-out: MIC
Procedure: (§2) The susceptibility of Cryptococcus neoformans IFM 5844 to 20 peptides (Supplementary Table 1) was tested in a widely used synthetic medium to cultivate yeasts (YNB) and in a serum-free medium what is able to support the proliferation of macrophage cells (X-VIVO).
YNB medium: five-fold diluted Difco Yeast Nitrogen Base w/o Amino Acids medium (Becton, Dickinson and Company, Sparks, MD, USA) supplemented with 1 % dextrose
(§3) The minimal inhibitory concentration (MIC) of each peptide was determined by using micro-dilution assay. The C. neoformans suspensions were adjusted to 5 × 10^4 cells/mL concentration in either YNB or X-VIVO medium. A 96-well microtiter plate was prepared by adding 95 µL suspension per well followed by 5 µL of serially two-fold diluted peptide solutions achieving a final volume of 100 µl. The concentration of the peptides ranged from 25 to 0.39 µM. For control samples, 5 µL pure medium was added to the yeast cell suspension instead of peptides. Plates were incubated at 37 °C for 48 h in X-VIVO medium and 30 °C for 72 h in YNB medium. After incubation, optical density was measured at 620 nm using a SPECTROstar Nano plate reader (BMG LabTech, Offenburg, Germany). […] The experiments were carried out in three independent biological replicates.

[4] = tested on: Cryptococcus neoformans IFM 5844; format: cell-based; details: IFM 5844, 48 h
Procedure: as §2
X-VIVO medium: half-diluted X-VIVO™ 15 cell culture medium (Lonza, Verviers, Belgium).
as §3

[5] = tested on: Cryptococcus neoformans IFM 5844; assay: Minimal fungicidal concentration (MFC) determination, spotting on YPD; format: cell-based; details: cultures from MIC assays diluted and spotted onto solid YPD, 30 °C, 48 h
Procedure: Minimal fungicidal concentration (MFC) determination. To assess fungicidal activity, both control and peptide-treated cultures from the MIC assays were diluted 10-fold and 100-fold in sterile distilled water. Five µL from each dilution was then spotted onto solid YPD medium (1 % pepton, 1 % dextrose, 0.5 % yeast extract, 2 % agar). The plates were incubated at 30 °C for 48 h and fungal growth was evaluated. MFC was defined as the lowest peptide concentration at which no visible fungal growth was detected, indicating complete fungicidal activity.

SMILES: CSCC[C@H](NC(=O)[C@H](CCCCN)NC(=O)[C@H](Cc1ccccc1)NC(=O)[C@H](CC(N)=O)NC(=O)[C@H](CC(C)C)NC(=O)[C@@H]1CCCN1C(=O)[C@@H](N)CCCNC(=N)N)C(=O)N[C@@H](CC(C)C)C(=O)N[C@@H](CCCNC(=N)N)C(=O)N[C@@H](Cc1ccccc1)C(=O)N[C@@H](Cc1c[nH]c2ccccc12)C(=O)NCC(=O)N[C@@H](CCC(N)=O)C(=O)N[C@@H](CCC(N)=O)C(=O)N[C@@H](CCC(N)=O)C(=O)N[C@@H](CS)C(=O)N[C@@H](CCCNC(=N)N)C(=O)N[C@@H](CCCNC(=N)N)C(=O)N1CCC[C@H]1C(=O)N[C@@H](CC(C)C)C(=O)N[C@@H](Cc1ccc(O)cc1)C(=O)N[C@@H](CS)C(=O)N[C@@H](CCCNC(=N)N)C(=O)N[C@@H](CCCNC(=N)N)C(=O)N[C@@H](CCCNC(=N)N)C(N)=O [X1-NCR247C] (H-RPLNFKMLRFWGQQQCRRPLYCRRR-NH2; N-terminus assumed)
- percentage of phagocytic macrophages (J774.2 mouse macrophages; 30 min post-infection, untreated control 5.12 %): 7.95%
- percentage of phagocytic macrophages (J774.2 mouse macrophages; 60 min post-infection, untreated control 6.95 %): 33.95%
- effect on CFU counts (C. neoformans cells; calcofluor white (2.5 µg/mL) pre-treatment 5 min, then peptide 0.39 µM for 15 min): no reduction in the number of colony-forming units was observed
- effect on CFU counts (C. neoformans cells; peptide 0.39 µM (MIC) alone, 20 min, YNB, p ≤ 0.0001): significantly decrease cell viability
- CFU count reduction relative to untreated control ([1]; 0.39 µM): 97%
- CFU count reduction relative to untreated control ([1]; 0.78 µM): 99%
- CFU count reduction relative to untreated control ([2]; 0.39 µM): 43%
- CFU count reduction relative to untreated control ([2]; 0.78 µM): 83%
- MIC [3]: 1.56 µM (≈ 5.16 µg/mL)
- MIC [4]: 3.12 µM (≈ 10.3 µg/mL)
- fungistatic or fungicide mode of action [5]: fungicidal effect
